Laboratory results published in paper PMC6677754, “In silico design and optimization of selective membranolytic anticancer peptides” (Scientific Reports, 2019).
Read-outs that look alike come from different tables or passages of the source. Peptide text beside a SMILES is read from it.

Experiments:
[1] = test system: MCF7 breast adenocarcinoma cell line; assay: Cell viability assay (MTT); assay type: cell-based, human; conditions: 10^4 cells per well, 24 h with peptide, 2-fold dilution series from 100 µM in DMEM, absorbance 540 nm, mean ± std, N = 3
Protocol: (§1) 10% fetal bovine serum and 1% penicillin-streptomycin (Thermo Fisher Scientific, Waltham, MA, USA). The cultures were kept at 37°C in a 5% CO2 atmosphere incubator (Thermo Fisher Scientific, Waltham, MA, USA) and split every two to three days to new culture flasks. Cells no older than 20 passages were used for experiments.
(§2) For splitting, the cell culture media was aspirated, the cells were washed with 0.01 M phosphate buffered saline (PBS, Gibco, Thermo Fisher Scientific, Waltham, MA, USA) and trypsin-EDTA (trypsin - ethylene diamine tetraacetic acid, Fisher scientific, UK) was added to the cell layer to detach them from the flask surface. After incubation for 2 min at 37°C, cells were resuspended with an equal volume of DMEM media and centrifuged at 310 g for 5 min at 4°C. After removal of the supernatant the cells were resuspended in DMEM cell media and split into new cell culture flasks at a 1/3 to 1/5 ratio.
(§3) Determination of the anticancer peptides half effective concentration (EC50) was performed by a 3-(4,5-dimethylthiazol-2-yl)-2,5-diphenyltetrazolium bromide (MTT) assay, as described elsewhere21. Briefly, […] were seeded in each well of a 96-well plate and left to adhere and […]
(§4) sulfoxide (DMSO, Fisher Scientific, UK) at an intermediate concentration of 1 mM. The peptides were then diluted in a 2-fold dilution series starting at 100 μM with DMEM culture media. Cells were incubated with the peptide solutions for 24 h. After this time, the cell media was removed and the cells were incubated for 1 h with a 0.5 mg mL−1 MTT solution to allow enough time for formazan crystal formation (Sigma Aldrich, Steinheim, Germany). The supernatant was removed and 100 μL of DMSO were added into each well to resuspend the formazan crystals.
(§5) After manually shaking the plates to completely dissolve the crystals, the absorbance was measured at 540 nm in a Tecan Infinity M1000 spectrophotometer. The cell viability was determined based on the quantification of the color intensity in each culture well, considering the absorbance obtained by the control media without peptides as a 100% survival. The resultant sigmoidal curves were analyzed with the drc22 R package using a log-logistic model

[2] = test system: A549 lung adenocarcinoma cell line; assay: Cell viability assay (MTT); assay type: cell-based, human
Protocol: as §1, §2, §3, §4, §5

[3] = MTT, 10^4 cells per well, 24 h with peptide, 2-fold dilution series from 100 µM in DMEM, absorbance 540 nm, mean ± std, N = 3, read-out: A549 EC50/µM

Row | Structure (SMILES) | EC50 [1] [µM] | EC50 [2, 3] [µM] | EC50 ([2]; Fig. S11, experimental replicate 1 (top panel), fit value (error in brackets), N = 6 technical replicates, MTT 24 h, read-out: EC50) [µM] | EC50 ([2]; Fig. S11, experimental replicate 2 (middle panel), fit value (error in brackets), N = 6 technical replicates, MTT 24 h, read-out: EC50) [µM] | EC50 ([2]; Fig. S11, experimental replicate 3 (bottom panel), fit value (error in brackets), N = 6 technical replicates, MTT 24 h, read-out: EC50) [µM]
1 | CC[C@H](C)[C@H](NC(=O)[C@H](CC(N)=O)NC(=O)[C@@H]1CCCN1C(=O)[C@@H](NC(=O)[C@H](C)NC(=O)[C@H](C)NC(=O)[C@H](CC(N)=O)NC(=O)[C@@H](NC(=O)[C@@H](N)CCCNC(=N)N)C(C)C)[C@@H](C)CC)C(=O)N[C@H](C(=O)N[C@H](C(N)=O)C(C)C)[C@@H](C)CC [Gradient4] (H-RVNAAIPNIIV-NH2; N-terminus assumed) | > 50 | > 50 | – | – | –
2 | CC[C@H](C)[C@H](NC(=O)[C@H](Cc1ccc(O)cc1)NC(=O)[C@H](CC(N)=O)NC(=O)[C@H](CC(C)C)NC(=O)[C@H](CCC(=O)O)NC(=O)[C@H](CCC(=O)O)NC(=O)[C@H](CCCCN)NC(=O)[C@@H](NC(=O)[C@H](CO)NC(=O)[C@H](Cc1c[nH]cn1)NC(=O)[C@H](CCCNC(=N)N)NC(=O)[C@H](Cc1ccccc1)NC(=O)[C@H](C)N)C(C)C)C(=O)N[C@@H](CCCNC(=N)N)C(=O)N[C@@H](CCCNC(=N)N)C(=O)N[C@@H](CCCNC(=N)N)C(=O)N[C@@H](CC(C)C)C(=O)N[C@@H](CCC(=O)O)C(=O)N[C@@H](CCCNC(=N)N)C(=O)N[C@@H](Cc1ccccc1)C(=O)N1CCC[C@H]1C(=O)N[C@@H](CC(N)=O)C(=O)N[C@@H](CCCNC(=N)N)C(=O)N[C@@H](CC(C)C)C(N)=O [AmphiArc3] (H-AFRHSVKEELNYIRRRLERFPNRL-NH2; N-terminus assumed) | > 50 | > 50 | – | – | –
3 | CC[C@H](C)[C@H](NC(=O)[C@@H](NC(=O)[C@H](CC(=O)O)NC(=O)[C@H](Cc1ccccc1)NC(=O)[C@H](CC(C)C)NC(=O)CN)C(C)C)C(=O)NCC(=O)N[C@@H](CO)C(=O)N[C@@H](CCC(N)=O)C(=O)N[C@@H](C)C(=O)NCC(=O)NCC(=O)N[C@@H](C)C(=O)N[C@@H](C)C(=O)N1CCC[C@H]1C(=O)N[C@@H](Cc1c[nH]cn1)C(=O)N[C@@H](Cc1ccccc1)C(=O)N[C@@H](CC(C)C)C(=O)NCC(N)=O [Helical4] (H-GLFDVIGSQAGGAAPHFLG-NH2; N-terminus assumed) | > 50 | > 50 | – | – | –
4 | CC[C@H](C)[C@H](NC(=O)[C@H](CCCNC(=N)N)NC(=O)[C@H](CCCCN)NC(=O)[C@H](CC(C)C)NC(=O)[C@H](Cc1c[nH]c2ccccc12)NC(=O)[C@H](C)N)C(=O)N[C@@H](CCCCN)C(=O)N[C@@H](CCCCN)C(=O)N[C@@H](Cc1ccccc1)C(=O)N[C@@H](CC(C)C)C(=O)N[C@@H](CCCCN)C(=O)N[C@@H](C)C(=O)N[C@@H](CC(C)C)C(=O)N[C@@H](Cc1ccccc1)C(=O)N[C@@H](Cc1c[nH]c2ccccc12)C(=O)N[C@H](C(=O)N[C@@H](Cc1c[nH]c2ccccc12)C(=O)N[C@H](C(=O)N[C@@H](Cc1c[nH]c2ccccc12)C(N)=O)C(C)C)C(C)C [Gradient2] (H-AWLKRIKKFLKALFWVWVW-NH2) | 19 ± 1.8 | > 50 | 107 | 152 | 487
5 | CC[C@H](C)[C@H](NC(=O)[C@H](CC(=O)O)NC(=O)[C@H](CC(C)C)NC(=O)[C@H](CC(C)C)NC(=O)CN)C(=O)N[C@@H](C)C(=O)NCC(=O)NCC(=O)N[C@@H](CC(N)=O)C(=O)N[C@@H](C)C(=O)N[C@@H](CCC(=O)O)C(=O)N[C@H](C(=O)N[C@@H](CC(C)C)C(=O)N[C@@H](C)C(=O)NCC(=O)N[C@@H](Cc1c[nH]cn1)C(=O)N[C@@H](C)C(=O)N[C@H](C(N)=O)C(C)C)[C@@H](C)O [Helical3] (H-GLLDIAGGNAETLAGHAV-NH2; N-terminus assumed) | > 50 | > 50 | – | – | –
6 | CC[C@H](C)[C@H](NC(=O)[C@H](Cc1c[nH]c2ccccc12)NC(=O)[C@H](CCCNC(=N)N)NC(=O)[C@H](CCCNC(=N)N)NC(=O)[C@H](CC(C)C)NC(=O)[C@H](Cc1c[nH]c2ccccc12)NC(=O)[C@H](CC(N)=O)NC(=O)[C@H](Cc1c[nH]cn1)NC(=O)[C@@H](NC(=O)[C@H](CCCCN)NC(=O)[C@H](CCCCN)NC(=O)[C@@H](NC(=O)[C@H](Cc1c[nH]c2ccccc12)NC(=O)[C@@H](N)CCCCN)C(C)C)C(C)C)C(=O)N[C@@H](CCCCN)C(=O)N[C@H](C(=O)N[C@@H](Cc1ccccc1)C(=O)N[C@@H](CCC(=O)O)C(=O)N[C@@H](C)C(=O)N[C@@H](CC(C)C)C(=O)N[C@@H](Cc1ccccc1)C(=O)NCC(N)=O)C(C)C [AmphiArc1] (H-KWVKKVHNWLRRWIKVFEALFG-NH2) | 7 ± 0.5 | 18.4 ± 0.7 | – | – | –
7 | CC[C@H](C)[C@H](NC(=O)[C@H](C)NC(=O)[C@H](Cc1c[nH]c2ccccc12)NC(=O)[C@H](CC(C)C)NC(=O)CN)C(=O)N[C@@H](C)C(=O)N[C@H](C(=O)N[C@@H](CCCCN)C(=O)N[C@@H](C)C(=O)NCC(=O)N[C@@H](CCCCN)C(=O)N[C@H](C(=O)N[C@H](C(=O)N[C@@H](CC(C)C)C(=O)N[C@@H](CCCCN)C(=O)N[C@@H](CC(C)C)C(=O)N[C@H](C(=O)N[C@H](C(=O)N[C@@H](Cc1ccccc1)C(=O)N[C@H](C(=O)N[C@@H](Cc1c[nH]c2ccccc12)C(=O)N[C@H](C(=O)N[C@@H](CCCNC(=N)N)C(=O)N[C@H](C(N)=O)C(C)C)[C@@H](C)CC)[C@@H](C)CC)C(C)C)[C@@H](C)CC)[C@@H](C)CC)C(C)C)C(C)C [Helical2] (H-GLWAIAVKAGKVILKLIVFIWIRV-NH2; N-terminus assumed) | > 50 | > 50 | – | – | –
8 | CC[C@H](C)[C@H](NC(=O)[C@H](CO)NC(=O)[C@H](CCC(N)=O)NC(=O)[C@H](CC(C)C)NC(=O)[C@H](CCCNC(=N)N)NC(=O)[C@H](CCCCN)NC(=O)[C@H](CCCNC(=N)N)NC(=O)[C@H](CC(C)C)NC(=O)CNC(=O)[C@H](CC(N)=O)NC(=O)[C@H](CCC(=O)O)NC(=O)[C@@H](NC(=O)[C@@H](N)CCCNC(=N)N)[C@@H](C)CC)C(=O)N[C@@H](Cc1ccc(O)cc1)C(=O)N[C@@H](CCCNC(=N)N)C(=O)N[C@@H](Cc1c[nH]cn1)C(=O)N[C@@H](CC(C)C)C(=O)N[C@@H](CCC(=O)O)C(=O)N[C@@H](CCC(=O)O)C(N)=O [AmphiArc4] (H-RIENGLRKRLQSIYRHLEE-NH2; N-terminus assumed) | > 50 | > 50 | – | – | –
9 | CC[C@H](C)[C@H](NC(=O)[C@H](Cc1c[nH]c2ccccc12)NC(=O)[C@@H](NC(=O)[C@H](CCCNC(=N)N)NC(=O)[C@@H](NC(=O)[C@H](Cc1c[nH]c2ccccc12)NC(=O)[C@@H](N)CCCCN)C(C)C)[C@@H](C)CC)C(=O)N[C@@H](CCCCN)C(=O)N[C@H](C(=O)N[C@@H](CC(C)C)C(=O)N[C@@H](CCCNC(=N)N)C(=O)NCC(=O)N[C@@H](CC(C)C)C(=O)N[C@@H](Cc1ccccc1)C(=O)N[C@H](C(=O)N[C@@H](Cc1c[nH]c2ccccc12)C(=O)N[C@H](C(=O)N[C@@H](Cc1c[nH]c2ccccc12)C(=O)N[C@@H](Cc1ccccc1)C(=O)N[C@@H](Cc1ccccc1)C(N)=O)C(C)C)C(C)C)C(C)C [Gradient1] (H-KWVRIWIKVLRGLFVWVWFF-NH2; N-terminus assumed) | > 50 | > 50 | – | – | –
10 | CC[C@H](C)[C@H](NC(=O)[C@@H](NC(=O)[C@H](CC(C)C)NC(=O)[C@@H](NC(=O)[C@H](CC(N)=O)NC(=O)[C@H](CCC(=O)O)NC(=O)[C@H](Cc1ccccc1)NC(=O)[C@H](CC(N)=O)NC(=O)[C@H](CC(=O)O)NC(=O)[C@@H](NC(=O)[C@@H](NC(=O)[C@@H](N)CCCCN)C(C)C)C(C)C)[C@@H](C)CC)[C@@H](C)CC)C(N)=O [Gradient3] (H-KVVDNFENILII-NH2; N-terminus assumed) | > 50 | > 50 | – | – | –
11 | CC[C@H](C)[C@H](NC(=O)[C@H](CC(C)C)NC(=O)[C@H](CCCCN)NC(=O)[C@H](CC(C)C)NC(=O)[C@@H](NC(=O)[C@H](C)NC(=O)CNC(=O)[C@H](C)NC(=O)[C@H](CC(C)C)NC(=O)[C@H](CCCCN)NC(=O)CNC(=O)[C@H](CC(C)C)NC(=O)[C@H](CCCCN)NC(=O)[C@@H](NC(=O)[C@H](Cc1c[nH]c2ccccc12)NC(=O)[C@H](CC(C)C)NC(=O)[C@@H](N)Cc1ccccc1)[C@@H](C)CC)C(C)C)C(=O)N[C@@H](CC(C)C)C(=O)NCC(=O)N[C@@H](CC(C)C)C(=O)N[C@@H](CCCCN)C(=O)N[C@@H](CCCCN)C(=O)N[C@H](C(=O)N[C@H](C(N)=O)C(C)C)C(C)C [Helical1] (H-FLWIKLGKLAGAVLKLILGLKKVV-NH2) | 4.4 ± 1.3 | 8.3 ± 2 | – | – | –
